Experimental data: patent US20230058171A1, “NEW ORAL PHARMACEUTICAL COMPOSITION FOR CANCER THERAPY” (BOEHRINGER INGELHEIM INTERNATIONAL GMBH, priority 2021, published 2023)

Tests used:
tumors = test: Trial 1403-0002 combination with ezabenlimab (and anti-LAG3-1): tumor response; assay type: in vivo, human
[1] = system: advanced or metastatic solid tumors; test: Trial 1403-0001 efficacy: tumor response according to RECIST1.1; assay type: in vivo, human; settings: for Best overall response / days of exposure to the MDM2i of formula I: MDM2 AMPL
Excerpt: Trial 1403-0001 was a first in human Phase Ia/Ib, open label, multicenter, dose-escalation study of the MDM2-antagonist of formula I in patients with advanced or metastatic solid tumors. The Phase Ia dose escalation part aimed to define the Maximum Tolerated Dose (MTD) and the Recommended Dose for Expansion (RDE) for the MDM2-antagonist of formula I based on safety and tolerability, pharmacokinetics, pharmacodynamics, and preliminary efficacy. The RDE will be further explored in the Phase Ib expansion part of the trial.
15 patients in Arm B experienced a stable disease in arm B (representing 60% of all treated patients).
A treatment with a drug candidate (here the MDM2-antagonist of formula I) leading to a “PARTIAL RESPONSE (PR)” is defined by a ≥30% decrease in the sum of diameters of target lesions, taking as reference the sum of diameters of the target lesions prior to treatment (=baseline sum of diameters) according to the RECIST1.1 criteria (Eisenhauer et al, Eur. J. Canc. (2009), Vol. 45, pp. 228-247).
A treatment with a drug candidate (here the MDM2-antagonist of formula I) leading to a “PROGRESSIVE DISEASE (PD)” is defined by a ≥20% increase in the sum of diameters of target lesions, taking as reference the smallest sum of diameters of target lesions on study (including the baseline sum of diameters if that is the smallest sum of diameters of target lesions on study) according to the RECIST1.1 criteria (Eisenhauer et al, Eur. J. Canc. (2009), Vol. 45, pp. 228-247).
A treatment with a drug candidate (here the MDM2-antagonist of formula I) leading to a “STABLE DISEASE (SD)” is defined by neither sufficient shrinkage to qualify for PR nor sufficient increase to qualify for PD, taking as reference the smallest sum of diameters of the target lesions on study (including the baseline sum of diameters if that is the smallest sum of diameters on study) according to the RECIST1.1 criteria (Eisenhauer et al, Eur. J. Canc. (2009), Vol. 45, pp. 228-247).

[2] = triple combination (11 treated)
[3] = Arm A patient 1392001001, WD LPS, 20 mg D1q3w
[4] = Arm A patient 1392001006, DDLPS, 50 mg D1q3w
[5] = Arm A patient 1840003004, DDLPS, 60 mg D1q3w, no prior therapy
[6] = Arm A patient 1840003006, DDLPS, 50 mg D1q3w
[7] = Arm A patient 1840003008, DDLPS, 60 mg D1q3w
[8] = Arm B patient 1392001005, DDLPS, 15/15 mg D1D8q4w
[9] = Arm B patient 1392001007, DDLPS, 30/30 mg D1D8q4w
[10] = Arm B patient 1392001009, WD LPS, 60/60 mg D1D8q4w
[11] = Arm B patient 1840002005, DDLPS, 20/20 mg D1D8q4w, no prior therapy
[12] = Arm B patient 1840003009, DDLPS, 45/45 mg D1D8q4w
[13] = Arm B patient 1840003010, DDLPS, 45/45 mg D1D8q4w
[14] = Arm B patient 1840003011, WD LPS, 30/30 mg D1D8q4w
[15] = Arm B patient 1840003014, WD LPS, 45/45 mg D1D8q4w

## Cc1c(C(=O)O)ccc2c3n(nc12)[C@@H]1[C@H](C3)N(CC2CC2)[C@@]2(C(=O)Nc3cc(Cl)ccc32)[C@H]1c1cccc(Cl)c1F [MDM2-antagonist of formula I, (2′S,3′S,3a'S,10a'S)-6-chloro-3′-(3-chloro-2-fluorophenyl)-1′-(cyclopropylmethyl)-6′-methyl-2-oxo-1,2,3′,3a′,10′,10a′-hexahydro-1′H-spiro[indole-3,2′-pyrrolo[2′,3′:4,5]pyrrolo[1,2-b]indazole]-7′-carboxylic acid]
tumors; double combination with 240 mg ezabenlimab D1 q3w, nine evaluable patients
  patients with confirmed partial response (PR): four
tumors; double combination, 30 mg + 240 mg ezabenlimab D1 q3w
  patients with confirmed partial response (PR): one
tumors; double combination, 30 mg + 240 mg ezabenlimab D1 q3w, adenocarcinoma
  patients with unconfirmed PR: one
tumors; double combination, 45 mg + 240 mg ezabenlimab D1 q3w
  patients with confirmed partial response (PR): three
tumors; double combination, nine evaluable patients
  patients with stable disease: Four
tumors; [2]
  Confirmed partial response, % of patients: (9.1) %
  Confirmed partial response, number of patients: 1
  Disease control, % of patients: (72.5) %
  Disease control, number of patients: 8
  Progressive disease, % of patients: (18.2) %
  Progressive disease, number of patients: 2
  Stable disease, number of patients: 7
  Unconfirmed partial response, % of patients: (9.1) %
  Unconfirmed partial response, number of patients: 1
tumors; triple combination, MDM2-amplified liposarcoma and MDM2-amplified urothelial carcinoma patient
  Partial Responses (PRs), number: 2
[1]; [3]
  Best overall response: PR (PR, tumor shrinkage of at least −30%)
  days of exposure to the MDM2i of formula I: 778 days
[1]; [4]
  Best overall response: SD (SD, tumor growth modification between +20% and −30%)
  days of exposure to the MDM2i of formula I: 107 days
[1]; Arm A patient 1392001011, WDLPS, 80 mg D1q3w
  Best overall response: PR (PR, tumor shrinkage of at least −30%)
[1]; Arm A patient 1392001011, WDLPS, 80 mg D1q3w, ongoing
  days of exposure to the MDM2i of formula I: 228 days
[1]; Arm A patient 1840002004, DDLPS, 45 mg D1q3w
  Best overall response: SD (SD, tumor growth modification between +20% and −30%)
[1]; Arm A patient 1840002004, DDLPS, 45 mg D1q3w, third line
  days of exposure to the MDM2i of formula I: 353 days
[1]; [5]
  Best overall response: SD (SD, tumor growth modification between +20% and −30%)
  days of exposure to the MDM2i of formula I: 342 days
[1]; [6]
  Best overall response: SD (SD, tumor growth modification between +20% and −30%)
  days of exposure to the MDM2i of formula I: 85 days
[1]; [7]
  Best overall response: SD (SD, tumor growth modification between +20% and −30%)
  days of exposure to the MDM2i of formula I: 57 days
[1]; Arm A patient 1840003013, WDLPS, 80 mg D1q3w
  Best overall response: SD (SD, tumor growth modification between +20% and −30%)
[1]; Arm A patient 1840003013, WDLPS, 80 mg D1q3w, ongoing
  days of exposure to the MDM2i of formula I: 214 days
[1]; Arm A patient 1846002602, DDLPS, 45 mg D1q3w
  Best overall response: SD (SD, tumor growth modification between +20% and −30%)
[1]; Arm A patient 1846002602, DDLPS, 45 mg D1q3w, second line
  days of exposure to the MDM2i of formula I: 709 days
[1]; Arm A patient with p53-wildtype MDM2-amplified biliary adenocarcinoma, partial response
  tumor shrinkage: 54%
[1]; [8]
  Best overall response: SD (SD, tumor growth modification between +20% and −30%)
  days of exposure to the MDM2i of formula I: 491 days
[1]; [9]
  Best overall response: SD (SD, tumor growth modification between +20% and −30%)
  days of exposure to the MDM2i of formula I: 218 days
[1]; [10]
  Best overall response: SD (SD, tumor growth modification between +20% and −30%)
  days of exposure to the MDM2i of formula I: 105 days
[1]; [11]
  Best overall response: SD (SD, tumor growth modification between +20% and −30%)
  days of exposure to the MDM2i of formula I: 542 days
[1]; [12]
  Best overall response: SD (SD, tumor growth modification between +20% and −30%)
  days of exposure to the MDM2i of formula I: 274 days
[1]; [13]
  Best overall response: SD (SD, tumor growth modification between +20% and −30%)
  days of exposure to the MDM2i of formula I: 64 days
[1]; [14]
  Best overall response: SD (SD, tumor growth modification between +20% and −30%)
  days of exposure to the MDM2i of formula I: 100 days
[1]; Arm B patient 1840003012, WD LPS, 60/60 mg D1D8q4w
  Best overall response: PR (PR, tumor shrinkage of at least −30%)
[1]; Arm B patient 1840003012, WD LPS, 60/60 mg D1D8q4w, ongoing
  days of exposure to the MDM2i of formula I: 221 days
[1]; [15]
  Best overall response: SD (SD, tumor growth modification between +20% and −30%)
  days of exposure to the MDM2i of formula I: 127 days
[1]; Arm B patient with p53 wildtype MDM2-amplified pancreatic adenocarcinoma (PAC), partial response
  tumor shrinkage: 41%
[1]; DDLPS patient, 45 mg, second line therapy, for 709 days
  tumor shrinkage: approx. 5%
[1]; DDLPS patient, 45 mg, third line therapy, for 353 days
  tumor shrinkage: approx. 10%
[1]; arm A (29 treated)
  Disease control, % of patients: (75.9) %
  Disease control, number of patients: 22
  Partial response, number of patients: 3
  Progressive disease, % of patients: (20.7) %
  Progressive disease, number of patients: 6
  Stable disease, number of patients: 19
[1]; arm B (25 treated)
  Disease control, % of patients: (68) %
  Disease control, number of patients: 17
  Partial response, number of patients: 2
  Progressive disease, % of patients: (20) %
  Progressive disease, number of patients: 5
  Stable disease, number of patients: 15
[1]; both arms (54 treated)
  Disease control, % of patients: (72) %
  Disease control, number of patients: 39
  Partial response, number of patients: 5
  Progressive disease, % of patients: (20.3) %
  Progressive disease, number of patients: 11
  Stable disease, number of patients: 34
[1]; eleven dedifferentiated liposarcoma (DDLPS) patients
  approximate median PFS: around 10.8 months
[1]; of seven well differentiated liposarcoma (WDLPS) patients
  patients with partial response: three
[1]; one patient in Arm A
  duration of response: more than 2 years
